# Results: PubChem BioAssay (NCI)
#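 In this assay, cells in 96-well plates receive the compound at five concentrations for 48 hours. Endpoints are linearly interpolated between the surrounding concentrations. TGI: concentration producing complete growth inhibition.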
# What was measured:
# Assay in all cases: DTP human tumour cell line panel, 48 h
# UACC-62 melanoma = test system: UACC-62 melanoma
# DU-145 prostate = test system: DU-145 prostate
# SNB-19 CNS = test system: SNB-19 CNS
# SK-MEL-5 melanoma = test system: SK-MEL-5 melanoma
# LOX IMVI melanoma = test system: LOX IMVI melanoma
# NCI-H460 lung = test system: NCI-H460 lung
# NCI-H23 lung = test system: NCI-H23 lung
# U251 CNS = test system: U251 CNS
# NCI-H522 lung = test system: NCI-H522 lung
# SF-295 CNS = test system: SF-295 CNS
# RPMI-8226 leukemia = test system: RPMI-8226 leukemia
# IGROV1 ovarian = test system: IGROV1 ovarian
# MCF7 breast = test system: MCF7 breast
# M14 melanoma = test system: M14 melanoma
# KM12 colon = test system: KM12 colon
# HOP-62 NSCLC = test system: HOP-62 NSCLC
# NCI-H226 lung = test system: NCI-H226 lung
# MALME-3M melanoma = test system: MALME-3M melanoma
# RXF 393 renal = test system: RXF 393 renal
Compound,TGI (UACC-62 melanoma) [µM],TGI (DU-145 prostate) [µM],TGI (SNB-19 CNS) [µM],TGI (SK-MEL-5 melanoma) [µM],TGI (LOX IMVI melanoma) [µM],TGI (NCI-H460 lung) [µM],TGI (NCI-H23 lung) [µM],TGI (U251 CNS) [µM],TGI (NCI-H522 lung) [µM],TGI (SF-295 CNS) [µM],TGI (RPMI-8226 leukemia) [µM],TGI (IGROV1 ovarian) [µM],TGI (MCF7 breast) [µM],TGI (M14 melanoma) [µM],TGI (KM12 colon) [µM],TGI (HOP-62 NSCLC) [µM],TGI (NCI-H226 lung) [µM],TGI (MALME-3M melanoma) [µM],TGI (RXF 393 renal) [µM]
CNC(=O)CCCNC(=O)CCCC(=O)OC,> 100,> 100,> 100,> 100,> 100,> 100,> 100,> 100,> 100,> 100,> 100,> 100,> 100,> 100,> 100,> 100,> 100,> 100,
C=C(C)CCC1CC=[N+]([O-])OC1C(C)(C)C (stereo unspecified),> 100,> 100,,> 100,40.3,> 100,,> 100,58.5,> 100,> 100,> 100,89.9,63.5,64.8,> 100,48.9,,> 100
O=[N+]([O-])/C=C/c1cn(CCCCCCCCCCCCn2cc(/C=C/[N+](=O)[O-])c3ccccc32)c2ccccc12,> 100,> 100,,> 100,> 100,> 100,> 100,> 100,> 100,,> 100,> 100,> 100,> 100,> 100,> 100,> 100,> 100,
O=c1cc(CNC2CC3CCC2C3)[nH]c(=O)[nH]1 (stereo unspecified),> 100,> 100,> 100,> 100,> 100,> 100,> 100,> 100,> 100,> 100,> 100,> 100,> 100,> 100,> 100,> 100,,> 100,> 100
Nc1[nH]c(=O)[nH]c(=O)c1Cc1cccc(Cl)c1,> 100,,> 100,,> 100,> 100,> 100,> 100,> 100,> 100,> 100,> 100,48.8,> 100,> 100,> 100,> 100,> 100,> 100
O=C(CC(=O)c1ccccc1)C(=O)Nc1ccc(Cl)cc1,> 100,,> 100,> 100,> 56.7,> 55.1,> 100,> 100,> 100,> 100,> 100,> 100,,> 100,> 100,> 100,> 100,> 100,> 100
COc1cc(C(=O)O)c(-c2cc3c(cc2C=O)OCO3)c(OC)c1OC,> 10,> 10,> 10,> 10,> 10,,> 10,> 10,> 10,> 10,> 10,> 10,> 10,> 10,> 10,> 10,,> 10,
Nc1c(Cl)cc(-c2nc3ccccc3s2)cc1Cl,> 100,> 100,> 100,> 100,,> 100,,> 100,> 100,> 100,,> 100,> 100,> 100,> 100,> 100,> 100,> 100,> 100
C/C(=N\NC(=S)Nc1ccc([N+](=O)[O-])cc1)c1nc2ncccc2[nH]1,,> 100,4,5.27,,3.31,4.14,1.84,3.25,10.2,9.3,4.75,2.38,6.37,> 100,4.33,1.87,18.5,
COc1ccccc1C1c2cc3c(cc2OC(N2CCCC2)C1C)OCO3 (stereo unspecified),38.4,26.9,47.9,29.4,38.1,40.9,> 31.6,39.1,42.1,39.3,38.8,51.5,39.4,30.1,39.5,29.4,,43.2,36.9
CCC(C)N1CN(c2ccccc2)C2(CCN(CCCSc3ccc(F)cc3)CC2)C1=O (stereo unspecified),17.5,10.1,19.7,4.62,8.35,,16,13.7,18.9,5.57,5.72,14.2,11.1,7.08,15.2,4.74,17,15.8,
c1cc(CN2CCNCCNCCNCC2)cc(CN2CCNCCNCCNCC2)c1,> 100,> 100,> 100,> 100,> 100,> 100,> 100,> 100,,> 100,> 100,> 100,> 100,> 100,> 100,> 100,> 100,> 100,
COc1ccc(NC(=O)C(=O)Cc2nc3ccc(C(=O)c4ccccc4)cc3[nH]c2=O)c([N+](=O)[O-])c1,78.5,> 100,> 100,68.8,> 100,> 100,65.4,> 100,51.4,> 100,,60.7,> 100,> 100,64,> 100,39.8,> 100,> 100
Cc1ccc(/N=N/C(=NNC(=O)c2ccc(C)cc2)c2ccc(N(C)C)cc2)cc1,23.4,73.9,58.7,30.7,> 100,80.3,69.3,> 100,49.9,76.1,70.5,> 100,46.2,60.4,37,,68.4,,
